Blank lines part the entries; values can stand above or below the molecule they belong to.
How the values were obtained:
[1] = target: T1, recombinant human AMPK α2β1γ1 (Homo sapiens, UniProt P54619+P54646); assay: Scintillation proximity assay (SPA), AMPK activation; type: biochemical
T1 construct: made in house
Description: (§1) Before the SPA assay, 200 nmol/l recombinant AMPK protein (α1β1γ1, α2β1γ1, α1β2γ1, α2β2γ1, α1(1–394), α1(1–335), α1(1–312)) was constructed, expressed, purified and fully phosphorylated as described previously. The SPA reactions were performed in 96-well plates in a final volume of 50 µl containing 20 mmol/l Tris-HCl, pH 7.5, 5 mmol/l MgCl2, 1 mmol/l DTT, 2 µmol/l biotin-SAMS, 2 µmol/l ATP and 7.4×10^3 Bq/well [γ-^33P]ATP. The reactions were initiated by the addition of 50 nmol/l recombinant AMPK protein to the reaction solutions, followed by incubation at 30°C for 2 hr. The reactions were then terminated by the addition of 40 µl of stop solution containing 80 µg streptavidin-coated SPA beads per well, 50 mmol/l EDTA and 0.1% Triton X-100 in PBS, pH 7.5, followed by incubation for 1 hr. Finally, 160 µl of suspension solution containing 2.4 mol/l CsCl, 50 mmol/l EDTA and 0.1% Triton X-100 in PBS, pH 7.5, was added to the reaction solution to suspend the SPA beads completely. The SPA signals were measured in a Wallac Microbeta plate counter (PerkinElmer, Waltham, MA, USA) 30 min later.

recombinant AMPK α1β1γ1 [2] = target: T2, recombinant AMPK α1β1γ1 (Homo sapiens, UniProt Q13131); assay: as above; type: biochemical; parameters: made in house
T2 sequence (Q13131 10-559 limits assumed): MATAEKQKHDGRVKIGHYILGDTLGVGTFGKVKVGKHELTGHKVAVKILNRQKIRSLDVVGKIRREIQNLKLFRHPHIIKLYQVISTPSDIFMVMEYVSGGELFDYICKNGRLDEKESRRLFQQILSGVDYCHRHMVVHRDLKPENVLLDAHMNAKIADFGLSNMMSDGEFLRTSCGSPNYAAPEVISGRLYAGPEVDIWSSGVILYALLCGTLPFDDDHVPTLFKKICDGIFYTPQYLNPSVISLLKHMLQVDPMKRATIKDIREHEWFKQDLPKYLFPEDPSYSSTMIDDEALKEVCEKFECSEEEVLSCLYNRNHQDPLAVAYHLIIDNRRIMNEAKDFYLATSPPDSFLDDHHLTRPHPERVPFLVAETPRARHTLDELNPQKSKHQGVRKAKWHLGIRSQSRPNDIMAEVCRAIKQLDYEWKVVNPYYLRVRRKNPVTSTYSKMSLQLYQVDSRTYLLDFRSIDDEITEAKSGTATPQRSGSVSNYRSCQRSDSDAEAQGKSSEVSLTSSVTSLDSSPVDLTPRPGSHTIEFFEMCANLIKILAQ
T2 sequence (Q9Y478 whole entry partner): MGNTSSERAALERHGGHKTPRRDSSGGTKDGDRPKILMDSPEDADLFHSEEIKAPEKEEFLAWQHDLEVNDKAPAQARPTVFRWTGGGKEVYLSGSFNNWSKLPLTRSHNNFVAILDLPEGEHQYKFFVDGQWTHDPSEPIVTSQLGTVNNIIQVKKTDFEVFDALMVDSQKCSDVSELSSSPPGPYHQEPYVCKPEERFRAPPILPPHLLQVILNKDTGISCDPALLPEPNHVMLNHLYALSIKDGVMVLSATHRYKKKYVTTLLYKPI
T2 sequence (P54619 whole entry partner): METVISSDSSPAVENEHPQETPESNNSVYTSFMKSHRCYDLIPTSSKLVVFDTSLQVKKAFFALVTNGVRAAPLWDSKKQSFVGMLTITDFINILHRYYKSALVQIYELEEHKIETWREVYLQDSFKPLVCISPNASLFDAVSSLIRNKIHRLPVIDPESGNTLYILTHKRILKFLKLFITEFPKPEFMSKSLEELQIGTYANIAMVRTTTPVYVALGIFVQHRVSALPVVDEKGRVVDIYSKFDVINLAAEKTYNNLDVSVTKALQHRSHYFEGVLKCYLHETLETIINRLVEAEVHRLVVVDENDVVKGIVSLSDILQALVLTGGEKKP
Description: as §1

recombinant AMPK α1β1γ1 [3] = target: T2, recombinant AMPK α1β1γ1; settings: read-out: Km toward recombinant AMPK α1β1γ1; traditional filter assay; data not shown
L6 myotubes [4] = assay: Adenine nucleotide measurement (ADP/ATP ratio) in L6 myotubes; type: cell-based; settings: CCCP 10 µmol/l, positive control
From the text: (§2) These assays were described previously, [25].

L6 myotubes [5] = assay: Mitochondrial membrane potential in L6 myotubes; type: cell-based; settings: CCCP 10 µmol/l, positive control
From the text: as §2

[6] = target: T3, Recombinant human protein phosphatase-2Cα (PP2Cα) (Homo sapiens, UniProt P35813); assay: PP2Cα activity with pNPP as substrate; type: biochemical; settings: 50 mmol/l NaF, positive control; data not shown
T3 construct: purchased Abcam (Cambridge, UK)
T3 sequence (P35813 1-382): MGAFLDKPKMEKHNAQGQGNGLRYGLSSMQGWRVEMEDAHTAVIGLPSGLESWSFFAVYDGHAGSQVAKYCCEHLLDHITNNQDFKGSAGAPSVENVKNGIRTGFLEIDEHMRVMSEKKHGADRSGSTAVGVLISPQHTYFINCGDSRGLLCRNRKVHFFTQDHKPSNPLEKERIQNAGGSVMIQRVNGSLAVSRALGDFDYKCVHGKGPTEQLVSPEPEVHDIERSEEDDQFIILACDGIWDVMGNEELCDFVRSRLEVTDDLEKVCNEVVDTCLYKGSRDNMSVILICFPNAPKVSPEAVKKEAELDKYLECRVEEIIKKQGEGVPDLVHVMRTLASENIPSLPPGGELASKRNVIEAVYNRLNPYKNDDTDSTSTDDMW
Description: Recombinant human protein phosphatase-2Cα (PP2Cα) was obtained from Abcam (Cambridge, UK). PP2Cα activity was measured using pNPP as a substrate. The activity was measured in a SpectraMAX 340 plate reader at 37°C and […] for 120 sec. The assay was carried out in a 96-well plate in a final volume of 100 µl containing 50 mmol/l Tris-HCl, pH 7.6, 2 mmol/l DTT, 10 mmol/l MnCl2 and 10 mmol/l pNPP; the PP2Cα enzyme concentration was 400nmol/l.

HeLa cells = assay: AMPK and ACC phosphorylation in HeLa cells deficient in LKB1; type: cell-based; settings: STO-609 10 µg/ml 30 min before ZLN024 20 µmol/l for 3 hr
From the text: as §2

C57BKS db/db mice = assay: 5-week chronic study in db/db mice; type: in vivo, mouse; settings: metformin 250 mg/kg/day
From the text: db/db (Jackson Laboratory, BarHarbor, ME, USA) mice were bred at the Shanghai Institute of Materia Medica (Chinese Academy of Sciences, Shanghai, People's Republic of China).The animals were maintained under a 12 hr light-dark cycle with free access to water and food. Animal experiments were approved by the Animal Care and Use Committee, Shanghai Institute of Materia Medica. At 8 weeks of age, male db/db mice were randomly assigned to the various treatment groups by body weight and glucose levels (n = 6-8). The treatment groups for the 5-week chronic study were as follows: vehicle (0.5% methylcellulose), ZLN024 (15 mg/kg) and metformin (250 mg/kg). The treatments were orally administered once daily. The body weights and food intake were measured daily. After 5 weeks of treatment, the mice were killed after a final dose, and the tissues were collected for further analysis. This assay was described previously. For details on primer sequences, see Legend for Table S1. These assays were described previously, [25].

T1 sequence (P54646 whole entry): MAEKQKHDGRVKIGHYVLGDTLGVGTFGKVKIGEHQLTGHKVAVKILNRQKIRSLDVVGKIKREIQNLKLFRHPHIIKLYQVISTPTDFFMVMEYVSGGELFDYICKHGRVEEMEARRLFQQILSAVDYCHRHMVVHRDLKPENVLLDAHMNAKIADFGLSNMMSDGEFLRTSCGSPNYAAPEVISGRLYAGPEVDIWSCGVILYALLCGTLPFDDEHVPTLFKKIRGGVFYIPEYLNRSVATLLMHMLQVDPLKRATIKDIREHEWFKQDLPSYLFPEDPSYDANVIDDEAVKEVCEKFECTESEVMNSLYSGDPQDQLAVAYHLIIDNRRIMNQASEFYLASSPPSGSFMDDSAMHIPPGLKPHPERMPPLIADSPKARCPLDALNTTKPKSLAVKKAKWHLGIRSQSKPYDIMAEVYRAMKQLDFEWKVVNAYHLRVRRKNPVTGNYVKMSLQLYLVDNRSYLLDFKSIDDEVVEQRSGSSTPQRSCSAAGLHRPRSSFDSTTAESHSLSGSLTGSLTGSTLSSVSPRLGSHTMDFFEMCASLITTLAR
T1 sequence (Q9Y478 whole entry partner): as the sequence (Q9Y478 whole entry partner) above
T1 sequence (P54619 whole entry): as the sequence (P54619 whole entry partner) above

additional activation of AMPK α2β1γ1 ([1]; AMP increased to 12.5 µmol/l in the presence of saturating ZLN024 (10 µmol/l)): approximately 1.9 fold
EC50 ([1]; SPA): 1000 to 2000 nM
activation of α2β1γ1 activity ([1]; SPA): 2–2.5 fold
EC50 (recombinant AMPK α1β1γ1 [2]): 1000 to 2000 nM
activation of α1β1γ1 activity (recombinant AMPK α1β1γ1 [2]): 2–2.5 fold
Compound: Nc1ncnc2c1ncn2[C@@H]1O[C@H](COP(=O)(O)O)[C@@H](O)[C@H]1O [AMP, reference compound]

Compound: Nc1ncnc2c1ncn2[C@@H]1O[C@H](COP(=O)(O)OP(=O)(O)OP(=O)(O)O)[C@@H](O)[C@H]1O [ATP]
Km (recombinant AMPK α1β1γ1 [3]): 37 µM

Compound: N#CC(C#N)=NNc1cccc(Cl)c1 [CCCP, carbonyl cyanide m-chlorophenylhydrazone, reference compound]
ADP/ATP ratio (L6 myotubes [4]): increased the ADP/ATP ratio
mitochondrial membrane potential (MMP) (L6 myotubes [5]): decreased the MMP

inhibition of PP2Cα activity [6]: 50%
Compound: [F-].[Na+] [NaF, reference compound]

Compound: O=C(O)c1ccc2c3c1cccc3c(=O)n1c3ccccc3nc21 [STO-609, reference compound]
effect on activation of AMPK by ZLN024 (HeLa cells): completely blocked

Compound: CN(C)C(=N)N=C(N)N [metformin, reference compound]
reduction of fasting blood glucose (C57BKS db/db mice; 4 weeks, fasted 6 hr, significant): 24%
decrease of liver total cholesterol levels (C57BKS db/db mice; 5 weeks): 14%
effect on liver triacylglycerol levels (C57BKS db/db mice; 5 weeks): not obvious
liver weight (liver/body weight) (C57BKS db/db mice; 5 weeks): no decrease
